# From PubChem BioAssay (NCI)
#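 Abbreviation: GI50, concentration required for 50% inhibition of growth. Definition used: TGI = concentration required for complete inhibition of growth.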
# Experiments:
# Assay in all cases: DTP human tumour cell line panel, 384-well format
# [1] = test system: BT-549 breast
# [2] = test system: SK-MEL-28 melanoma
# [3] = test system: IGROV1 ovarian
# [4] = test system: RPMI-8226 leukemia
# [5] = test system: MALME-3M melanoma
# [6] = test system: HCT-15 colon
# [7] = test system: UACC-257 melanoma
# [8] = test system: NCI-H226 lung
# [9] = test system: OVCAR-4 ovarian
# [10] = test system: OVCAR-5 ovarian
# [11] = test system: PC-3 prostate
# [12] = test system: SW-620 colon
# [13] = test system: CAKI-1 renal
# [14] = test system: A498 renal
# [15] = test system: UACC-62 melanoma
# [16] = test system: SNB-19 CNS
# [17] = test system: HOP-92 NSCLC
# [18] = test system: SK-MEL-2 melanoma
# [19] = test system: M14 melanoma
# [20] = test system: SF-539 CNS
# [21] = test system: DU-145 prostate
# [22] = test system: HS 578T breast
# [23] = test system: SNB-75 CNS
# [24] = test system: 786-0 renal
# [25] = test system: NCI-H322M lung
# [26] = test system: KM12 colon
# [27] = test system: A549 NSCLC
# [28] = test system: SN12C renal
# [29] = test system: RXF 393 renal
# [30] = test system: HT29 colon
# [31] = test system: LOX IMVI melanoma
# [32] = test system: MDA-MB-435 melanoma
# [33] = test system: SK-MEL-5 melanoma
# [34] = test system: NCI-H23 lung
# [35] = test system: OVCAR-3 ovarian
# [36] = test system: UO-31 renal
# [37] = test system: COLO 205 colon
# [38] = test system: NCI/ADR-RES ovarian
# [39] = test system: MDA-MB-231 breast
# [40] = test system: SF-268 CNS
# [41] = test system: NCI-H460 NSCLC
# [42] = test system: TK-10 renal
# [43] = test system: U251 glioblastoma
# [44] = test system: SK-OV-3 ovarian
# [45] = test system: T-47D breast
# [46] = test system: EKVX NSCLC
# [47] = test system: HOP-62 NSCLC
# [48] = test system: HCT-116 colon
# [49] = test system: SR leukemia
# [50] = test system: NCI-H522 lung
# [51] = test system: MDA-MB-468 breast
# [52] = test system: HL-60(TB) leukemia
# [53] = test system: MOLT-4 leukemia
# [54] = test system: CCRF-CEM leukemia
# [55] = test system: K-562 leukemia
# [56] = test system: MCF7 breast
# [57] = test system: SF-295 CNS
# [58] = test system: ACHN renal
# [59] = test system: HCC-2998 colon
# [60] = test system: OVCAR-8 ovarian
structure (smiles),measurement,setting,value
NC(=O)c1ccc2nc(-c3ccc(Oc4ccc(Cl)cc4)cc3)[nH]c2c1,GI50,[1],13.6 µM
same,TGI,[1],30.7 µM
same,GI50,[2],22.2 µM
same,TGI,[2],80 µM
same,GI50,[3],17.1 µM
same,TGI,[3],53.2 µM
same,GI50,[4],15.2 µM
same,TGI,[4],29.1 µM
same,GI50,[5],17.1 µM
same,TGI,[5],46.2 µM
same,GI50,[6],16.9 µM
same,TGI,[6],34.4 µM
same,GI50,[7],16.2 µM
same,TGI,[7],35.1 µM
same,GI50,[8],22 µM
same,TGI,[8],78.1 µM
same,GI50,[9],11.4 µM
same,TGI,[9],37.1 µM
same,GI50,[10],23.6 µM
same,TGI,[10],> 100 µM
same,GI50,[11],16 µM
same,TGI,[11],34.6 µM
same,GI50,[12],15.4 µM
same,TGI,[12],63.2 µM
same,GI50,[13],25.1 µM
same,TGI,[13],> 100 µM
same,GI50,[14],16.1 µM
same,TGI,[14],31.6 µM
same,GI50,[15],25.2 µM
same,TGI,[15],75.1 µM
same,GI50,[16],14.9 µM
same,TGI,[16],35.4 µM
same,GI50,[17],20 µM
same,TGI,[17],80.3 µM
same,GI50,[18],33.7 µM
same,TGI,[18],53.6 µM
same,GI50,[19],20.2 µM
same,TGI,[19],50.3 µM
same,GI50,[20],17.5 µM
same,TGI,[20],45.1 µM
same,GI50,[21],15 µM
same,TGI,[21],36.9 µM
same,GI50,[22],13.4 µM
same,TGI,[22],30.7 µM
same,GI50,[23],22.3 µM
same,TGI,[23],58.1 µM
same,GI50,[24],15 µM
same,TGI,[24],37.1 µM
same,GI50,[25],15.3 µM
same,TGI,[25],38.6 µM
same,GI50,[26],14.5 µM
same,TGI,[26],31.3 µM
same,GI50,[27],20.2 µM
same,TGI,[27],> 100 µM
same,GI50,[28],17.4 µM
same,TGI,[28],45.8 µM
same,GI50,[29],10.6 µM
same,TGI,[29],27.7 µM
same,GI50,[30],10.5 µM
same,TGI,[30],24.1 µM
same,GI50,[31],26.2 µM
same,TGI,[31],60.7 µM
same,GI50,[32],23.2 µM
same,TGI,[32],68 µM
same,GI50,[33],13.6 µM
same,TGI,[33],28.1 µM
same,GI50,[34],20.1 µM
same,TGI,[34],76 µM
same,GI50,[35],12.1 µM
same,TGI,[35],25.4 µM
same,GI50,[36],16.9 µM
same,TGI,[36],44.5 µM
same,GI50,[37],33.8 µM
same,TGI,[37],97.8 µM
same,GI50,[38],23.5 µM
same,TGI,[38],74.7 µM
same,GI50,[39],21.5 µM
same,TGI,[39],46.1 µM
same,GI50,[40],15.9 µM
same,TGI,[40],56.2 µM
same,GI50,[41],14.8 µM
same,TGI,[41],29.1 µM
same,GI50,[42],23.3 µM
same,TGI,[42],> 100 µM
same,GI50,[43],12.3 µM
same,TGI,[43],26.7 µM
same,GI50,[44],24.8 µM
same,TGI,[44],58.7 µM
same,GI50,[45],11.6 µM
same,TGI,[45],29.5 µM
same,GI50,[46],21.7 µM
same,TGI,[46],68.4 µM
same,GI50,[47],13.6 µM
same,TGI,[47],33.9 µM
same,GI50,[48],16.8 µM
same,TGI,[48],40.8 µM
same,GI50,[49],3.77 µM
same,TGI,[49],14.1 µM
same,GI50,[50],14.9 µM
same,TGI,[50],46.2 µM
same,GI50,[51],13.7 µM
same,TGI,[51],34.5 µM
same,GI50,[52],15 µM
same,TGI,[52],28.4 µM
same,GI50,[53],12.9 µM
same,TGI,[53],25.8 µM
same,GI50,[54],15.3 µM
same,TGI,[54],29.7 µM
same,GI50,[55],7.87 µM
same,TGI,[55],23.4 µM
same,GI50,[56],12.1 µM
same,TGI,[56],27.1 µM
same,GI50,[57],13.5 µM
same,TGI,[57],30.8 µM
same,GI50,[58],17.4 µM
same,TGI,[58],45.1 µM
O=C(Nc1cccc(Br)c1)Oc1ccc(Cl)c2cccnc12,GI50,[1],3.75 µM
same,TGI,[1],15.4 µM
same,GI50,[2],3.5 µM
same,TGI,[2],9.22 µM
same,GI50,[3],1.49 µM
same,TGI,[3],3.35 µM
same,GI50,[4],1.65 µM
same,TGI,[4],3.08 µM
same,GI50,[5],2.79 µM
same,TGI,[5],7.77 µM
same,GI50,[6],3.74 µM
same,TGI,[6],10.6 µM
same,GI50,[7],2.6 µM
same,TGI,[7],4.37 µM
same,GI50,[8],1.62 µM
same,TGI,[8],3.12 µM
same,GI50,[9],4.88 µM
same,TGI,[9],15.9 µM
same,GI50,[11],2.37 µM
same,TGI,[11],5.64 µM
same,GI50,[12],4.45 µM
same,TGI,[12],13.8 µM
same,GI50,[13],2.61 µM
same,TGI,[13],6.82 µM
same,GI50,[14],4.23 µM
same,TGI,[14],13.1 µM
same,GI50,[15],3.73 µM
same,TGI,[15],10.8 µM
same,GI50,[16],4.2 µM
same,TGI,[16],15.4 µM
same,GI50,[17],3.59 µM
same,TGI,[17],9.38 µM
same,GI50,[18],2.39 µM
same,TGI,[18],4.87 µM
same,GI50,[19],2.68 µM
same,TGI,[19],6.58 µM
same,GI50,[20],3.26 µM
same,TGI,[20],10.4 µM
same,GI50,[21],4.76 µM
same,TGI,[21],19.7 µM
same,GI50,[22],5.86 µM
same,TGI,[22],18.9 µM
same,GI50,[23],2.96 µM
same,TGI,[23],8.36 µM
same,GI50,[24],14.3 µM
same,TGI,[24],27.5 µM
same,GI50,[25],15.3 µM
same,TGI,[25],31.4 µM
same,GI50,[26],7.59 µM
same,TGI,[26],19.7 µM
same,GI50,[27],11 µM
same,TGI,[27],23.8 µM
same,GI50,[28],3.56 µM
same,TGI,[28],14.9 µM
same,GI50,[59],15.4 µM
same,TGI,[59],28.9 µM
same,GI50,[29],2.63 µM
same,TGI,[29],9.07 µM
same,GI50,[30],14.4 µM
same,TGI,[30],27.6 µM
same,GI50,[31],3.36 µM
same,TGI,[31],12.3 µM
same,GI50,[32],5.71 µM
same,TGI,[32],19.1 µM
same,GI50,[33],2.01 µM
same,TGI,[33],4.53 µM
same,GI50,[34],1.98 µM
same,TGI,[34],3.91 µM
same,GI50,[35],1.91 µM
same,TGI,[35],3.64 µM
same,GI50,[37],4.37 µM
same,TGI,[37],12.1 µM
same,GI50,[38],2.57 µM
same,TGI,[38],4.9 µM
same,GI50,[40],3.33 µM
same,TGI,[40],12.1 µM
same,GI50,[41],3.22 µM
same,TGI,[41],9.1 µM
same,GI50,[42],18.5 µM
same,TGI,[42],47.4 µM
same,GI50,[43],3.9 µM
same,TGI,[43],11.2 µM
same,GI50,[44],15.4 µM
same,TGI,[44],28.9 µM
same,GI50,[60],2.29 µM
same,TGI,[60],4.86 µM
same,GI50,[46],2.6 µM
same,TGI,[46],5.8 µM
same,GI50,[47],3.43 µM
same,TGI,[47],6.55 µM
same,GI50,[48],2.02 µM
same,TGI,[48],3.77 µM
same,GI50,[50],2.01 µM
same,TGI,[50],4.04 µM
same,GI50,[51],2.54 µM
same,TGI,[51],4.16 µM
same,GI50,[52],0.42 µM
same,TGI,[52],1.42 µM
same,GI50,[53],1.73 µM
same,TGI,[53],3.16 µM
same,GI50,[54],1.6 µM
same,TGI,[54],3.01 µM
same,GI50,[55],13.5 µM
same,TGI,[55],27 µM
same,GI50,[56],2.04 µM
same,TGI,[56],4.28 µM
same,GI50,[57],4.71 µM
same,TGI,[57],16.3 µM
same,GI50,[58],3.98 µM
same,TGI,[58],15 µM
